Measured values: US20140349970A1 (ABBVIE INC., priority 2009, published 2014)
Like-named read-outs stand apart in the source and are kept apart here.

Target: T1, Syk catalytic domain (aa 356-635 with a C-terminal His-tag) (Homo sapiens, UniProt P43405)
T1 construct: His-tag (C); made in house
Test: In vitro Syk kinase activity measured by trFRET, Syk catalytic domain
Assay type: biochemical
In short: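 Kinase reaction: 0.14 nM His-tagged catalytic domain, 0.2 μM biotin-TYR1 peptide, 0.001 mM ATP in 50 mM MOPSO pH 6.5 with MgCl2, MnCl2, DTT, BSA, vanadate, ~60 min at rt, then EDTA quench. Phosphoproduct detected by trFRET (Eu anti-pTyr antibody/streptavidin-APC, 665 nm emission); IC50 from signal in linear range.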

[1] = Syk catalytic domain (aa 356-635), trFRET, 0.001 mM ATP

| Compound | IC50 | IC50 [1] |
| --- | --- | --- |
| Cc1nc(-c2ccc(C(C)(C)O)s2)c2cnc3[nH]ccc3n12 [S.1.11] | < 100 nM | – |
| COc1ccc2c(c1)c(-c1cc3c(ncc4cnc([C@@H]5CCNC5)n43)[nH]1)cn2C [T.1.1.2, (R)-7-(5-Methoxy-1-methyl-1H-indol-3-yl)-1-(pyrrolidin-3-yl)-6H-imidazo[1,5-a]pyrrolo[2,3-e]pyrazine diacetate] | – | < 100 nM |
| COc1ccc2c(c1)c(-c1cc3c(ncc4cnc(CCCN)n43)[nH]1)cn2C [T.1.1.3] | – | < 100 nM |
| COc1ccc2c(c1)c(-c1cc3c(ncc4cnc(CCN)n43)[nH]1)cn2C [T.1.1.4] | – | < 100 nM |
| CS(=O)(=O)c1cccc(-c2cc3c(ncc4cnc(CCCN)n43)[nH]2)c1 [T.1.1.6] | – | 100 to 1000 nM |
| COc1ccc2c(c1)c(-c1cc3c(ncc4cnc(CN)n43)[nH]1)cn2C [T.2.1, (7-(5-Methoxy-1-methyl-1H-indol-3-yl)-6H-imidazo[1,5-a]pyrrolo[2,3-e]pyrazin-1-yl)methanamine] | – | 100 to 1000 nM |
| Cn1ncc2cnc3[nH]c(-c4cccc(CN)c4)cc3c21 [T.3.1, (3-(1-Methyl-1,6-dihydropyrazolo[3,4-d]pyrrolo[2,3-b]pyridin-7-yl)phenyl)methanamine] | – | 1000 to 10000 nM |
| Cn1ncc2cnc3[nH]c(-c4ccc[nH]4)cc3c21 [T.3.1.2] | 100 to 1000 nM | – |
| COc1ccc(-c2nc([C@H]3CCC[C@@H](N)C3)n3c2cnc2[nH]ccc23)cc1 [T.3.1.3] | 100 to 1000 nM | – |
| COc1ccc(-c2nc(CN3CCNCC3)n3c2cnc2[nH]ccc23)cc1 [T.3.1.4] | 100 to 1000 nM | – |
| c1cc2c(ncc3c(-c4ccc(OC5CCNC5)cc4)ncn32)[nH]1 (stereo not shown) [T.3.1.5] | 100 to 1000 nM | – |
| COc1ccc(-c2nc(CN3CCNC(CO)C3)n3c2cnc2[nH]ccc23)cc1 (stereo not shown) [T.3.1.6] | 100 to 1000 nM | – |
| CS(=O)(=O)c1ccc(-c2nc(COCCN)n3c2cnc2[nH]ccc23)cc1 [T.4.1.1] | 100 to 1000 nM | – |
| CC(C)(O)c1ccc(-c2nc(CC3CCNCC3)n3c2cnc2[nH]ccc23)cc1 [T.4.1.2] | < 100 nM | – |
| CC(C)(N)CCc1nc(-c2ccc(C(C)(C)O)cc2)c2cnc3[nH]ccc3n12 [T.4.1.3] | 100 to 1000 nM | – |
| CC(=O)c1ccc(-c2nn(C)c3c2cnc2[nH]ccc23)cc1 [W.1.1, 1-(4-(1-Methyl-1,6-dihydropyrazolo[3,4-d]pyrrolo[2,3-b]pyridin-3-yl)phenyl)ethanone] | 100 to 1000 nM | – |
